Results as given in PMC4840272 (Neoplasia (New York, N.Y.), 2016).

Key:
MES-SA/dx5 = assay: cytotoxicity in multiple drug-resistant and cisplatin-resistant cells; type: cell-based
H1299 cells = assay: cells; type: cell-based, human; details: H1299, 72 hours, alamarBlue
PC9 cells = assay: cells; type: cell-based, human; details: PC9, 72 hours, alamarBlue
CL97 cells = assay: cells; type: cell-based, human; details: CL97, 72 hours, alamarBlue
CL1-5 cells = assay: alamarBlue in vitro cytotoxicity assay; type: cell-based, human; details: CL1-5, 72 hours, alamarBlue
H460 cells = assay: cells; type: cell-based, human; details: H460, 72 hours, alamarBlue
NTUB1 = assay: cytotoxicity in multiple drug-resistant and cisplatin-resistant cells; type: cell-based
CL141T cells = assay: cells; type: cell-based, human; details: 72 hours, alamarBlue
H1975 cells = assay: cells; type: cell-based, human; details: H1975, 72 hours, alamarBlue
CL100 cells = assay: cells; type: cell-based, human; details: CL100, 72 hours, alamarBlue
H460 xenograft = H460 xenograft in nude mice; type: in vivo; details: BO-1978 40 mg/kg QDx5, cisplatin 6 mg/kg every 4 days x3
A549 cells = assay: cells; type: cell-based, human; details: A549, 72 hours, alamarBlue
PC9/gef B4 cells = assay: cells; type: cell-based, human
MES-SA = assay: cytotoxicity in multiple drug-resistant and cisplatin-resistant cells; type: cell-based
NTUB1/P = assay: as above; type: cell-based
H1650 cells = assay: cells; type: cell-based, human; details: H1650, 72 hours, alamarBlue
CCRF/VBL = assay: cytotoxicity in multiple drug-resistant and cisplatin-resistant cells; type: cell-based
KB = assay: as above; type: cell-based; details: Homo sapiens
KB/vin10 = assay: as above; type: cell-based
CCRF-CEM = assay: as above; type: cell-based; details: Homo sapiens
PC9 xenograft = PC9 xenograft in nude mice; type: in vivo; details: i.v., BO-1978 40 mg/kg, gefitinib 10 mg/kg, daily for 5 consecutive days
H1975 xenograft = H1975 xenograft in nude mice; type: in vivo; details: i.v., BO-1978 40 mg/kg, gefitinib 10 mg/kg, daily for 5 consecutive days
H1650 xenograft = H1650 xenograft in nude mice; type: in vivo; details: i.v., BO-1978 40 mg/kg, gefitinib 10 mg/kg, daily for 5 consecutive days
PC9/gef B4 xenograft = PC9/gef B4 xenograft in nude mice; type: in vivo; details: i.v., BO-1978 40 mg/kg, gefitinib 10 mg/kg, daily for 5 consecutive days
H1650-Luc cells = assay: orthotopic lung tumor model, IVIS; type: in vivo, nude mice; details: BO-1978 40 mg/kg, gefitinib 10 mg/kg, daily for 5 consecutive days

Question: `N.N.[Cl][Pt][Cl]` [Cisplatin] was tested. Which IC50 (MES-SA/dx5; MES-SA/dx5) did it give?
Answer: 2270 ± 730 nM

Question: And the resistance factor (MES-SA/dx5; MES-SA/dx5 vs MES-SA)?
Answer: 1.25 x

Question: And the IC50 (H1299 cells)?
Answer: 16.5 ± 0.9 µM

Question: What about the IC50 (PC9 cells) of the same molecule?
Answer: 16.4 ± 3.29 µM

Question: And the IC50 (CL97 cells)?
Answer: 14.7 ± 0.34 µM

Question: What about the IC50 (CL1-5 cells) of the same molecule?
Answer: 2820 ± 280 nM

Question: And the IC50 (H460 cells)?
Answer: 9.94 ± 0.47 µM

Question: And the IC50 (NTUB1)?
Answer: 2970 ± 1430 nM

Question: What about the IC50 (CL141T cells) of the same molecule?
Answer: 2800 ± 360 nM

Question: What about the IC50 (H1975 cells) of the same molecule?
Answer: 16.1 ± 4.03 µM

Question: And the IC50 (CL100 cells)?
Answer: 6.21 ± 3.64 µM

Question: What about the body weight loss (H460 xenograft; H460 xenograft mice) of the same molecule?
Answer: approximately 12%

Question: What about the “H460 xenograft tumor size suppressed/reduced to” value (H460 xenograft; i.v.) of the same molecule?
Answer: 52%

Question: What about the IC50 (A549 cells) of the same molecule?
Answer: 31.1 ± 3.03 µM

Question: And the “resistance factor of PC9/gef B4 to PC9 cells” value (PC9/gef B4 cells; IC50 ratio, number in brackets)?
Answer: 2.10

Question: And the IC50 (PC9/gef B4 cells; PC9/gef B4, 72 hours, alamarBlue)?
Answer: 34.3 ± 1.62 µM

Question: What about the IC50 (MES-SA) of the same molecule?
Answer: 1820 ± 660 nM

Question: And the IC50 (NTUB1/P; NTUB1/P)?
Answer: 62.1 ± 15.3 µM

Question: What about the resistance factor (NTUB1/P; NTUB1/P vs NTUB1) of the same molecule?
Answer: 20.9 x

Question: And the IC50 (H1650 cells)?
Answer: 36.5 ± 8.14 µM

Question: Which IC50 (CCRF/VBL) does the source give for `CC[C@]1(O)C[C@H]2CN(CCc3c([nH]c4ccccc34)[C@@](C(=O)OC)(c3cc4c(cc3OC)N(C=O)[C@H]3[C@@](O)(C(=O)OC)[C@H](OC(C)=O)[C@]5(CC)C=CCN6CC[C@]43[C@@H]65)C2)C1` [Vincristine, reference compound] here?
Answer: 2130 ± 249 nM

Question: And the resistance factor (CCRF/VBL; CCRF/VBL vs CCRF-CEM)?
Answer: 954.3 x

Question: What about the IC50 (KB) of the same molecule?
Answer: 2.16 ± 0.25 nM

Question: What about the IC50 (KB/vin10; Homo sapiens, KB-VIN10) of the same molecule?
Answer: 510 ± 170 nM

Question: And the resistance factor (KB/vin10; KB/vin10 vs KB)?
Answer: 236.1 x

Question: And the IC50 (CCRF-CEM)?
Answer: 2.23 ± 0.19 nM

Question: What does the source list for `COc1cc2ncnc(Nc3ccc(F)c(Cl)c3)c2cc1OCCCN1CCOCC1` [Gefitinib, reference compound]?
Answer: suppression of xenograft tumor growth (PC9 xenograft): approximately 36%; suppression of xenograft tumor growth (H1975 xenograft): ~1%; suppression of xenograft tumor growth (H1650 xenograft): ~51%; suppression of xenograft tumor growth (PC9/gef B4 xenograft): ~49%; orthotopic growth of H1650-Luc cells (H1650-Luc cells): resistant to gefitinib treatment alone
